Assay results: US20070167408A1, “NOVEL ALKYL PHOSPHOLIPID DERIVATIVES WITH REDUCED CYTOTOXICITY AND USES THEREOF” (ZENTARIS GmbH, priority 2005, published 2007)
In brackets after ≈: the same amount, converted by molar mass.

Assays:
Assay type in all cases: cell-based
[1] = tested on: Aspergillus fumigatus 322-384; experiment: Anti-fungal broth microdilution (MIC), fungus B; details: filamentous protocol, more than 50% growth inhibition, 48 to 72 h
Outline: (§1)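 Broth microdilution per NCCLS M27-A (yeasts) and M38-A (filamentous fungi), compounds tested from 64 down to 0.125 μg/ml against 10^6 CFU/ml inocula. For filamentous fungi, MIC read after 48 to 72 h at 35° C as the concentration giving more than 50% visible growth inhibition.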

Candida albicans TS3 = experiment: Anti-fungal broth microdilution (MIC), fungus F; details: yeast protocol, more than 80% inhibition, 48 h
Outline: as §1

[2] = tested on: Cryptococcus neoformans ATCC 90112; experiment: Anti-fungal broth microdilution (MIC), fungus H; details: yeast protocol, more than 80% inhibition, 48 h
Outline: as §1

[3] = tested on: Cryptococcus neoformans H99; experiment: Anti-fungal broth microdilution (MIC), fungus I; details: yeast protocol, more than 80% inhibition, 48 h
Outline: as §1

[4] = tested on: Enterococcus faecium DSM 20477 (ATCC 19434); experiment: Anti-bacterial bouillon microdilution assay (MIC), bacterium C; details: Enterococcus faecium DSM 20477, 24 h
Protocol: Selected compounds of the invention were tested in a bouillon microdilution assay method according to the DIN 58940 (www.din.de) guidelines for determination of susceptibility of bacterial strains with regard to cell growth inhibition. The assay method quantifies bacterial cell growth which corresponds to the turbidity of the liquid culture medium by photometric measurement carried out at 595 nm.
The method of MIC determination was performed according to DIN 58940-5. The volumina were adapted according to the microdilution method as described in DIN 58940-7 guideline.
Dependent on water solubility, compounds of the invention were dissolved either in water or ethanol in a concentration of 10 mg/ml. Subsequently, the stock was further diluted in water to a concentration of 512 μg/ml. The following serial dilutions (factor 2) were performed in water resulting in the following […] testing concentrations: 256 μg/ml, 128 μg/ml, 64 μg/ml, 32 μg/ml, 16 μg/ml, 8 μg/ml, 4 μg/ml, 2 μg/ml, 1 μg/ml, 0.5 μg/ml, 0.25 μg/ml and 0.125 μg/ml. Diluted compounds of the invention were transferred in 100 μl volume to the microtiter plate wells. […]
Before and after incubation, bacterial growth was determined by photometric analysis against a positive control containing growing bacteria without compound and a sterile/negative control containing only the medium.

[5] = tested on: Bacteroides fragilis DSM 2151 (ATCC 25285); experiment: Anti-bacterial bouillon microdilution assay (MIC), bacterium E; details: anaerob, 24 h
Outline: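 Broth microdilution MIC per DIN 58940-5/-7. Twofold compound dilutions in water spanned 256 to 0.125 μg/ml in the test concentration series, with inocula of about 1×10^6 organisms/ml in strain-appropriate media. Growth was read as turbidity at 595 nm before and after incubation, against growth and sterile controls.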

Row | SMILES | MIC, fungus B [1] [µg/mL] | MIC, fungus F (Candida albicans TS3) [µg/mL] | MIC, fungus H [2] [µg/mL] | MIC, fungus I [3] [µg/mL] | MIC [4] [µg/mL] | MIC [5] [µg/mL]
1 | CCCCCCCCCCCCCCCCOP(=O)([O-])OCC[N+]1(C)CCCCC1 [Compound 2, Phosphoric acid hexadecyl ester 2-(1-methyl-piperidin-1-yl)-ethyl ester] | 2 (≈ 4.47 µM) | 1.5 (≈ 3.35 µM) | 1.5 (≈ 3.35 µM) | 1 (≈ 2.23 µM) | – | –
2 | CCCCCCCCCCCCCCCCOP(=O)([O-])OCC[N+](C)(C)C [miltefosine, hexadecylphosphocholine, reference compound] | – | – | – | – | 32 (≈ 78.5 µM) | > 256
